Measured values reported in patent US8268814B2, “Substituted sulfonamide compounds” (Gruenenthal GmbH, priority 2008, dated 2012).

How the values were obtained:
[1] = molecular target: T1, human B1R receptor (hB1R) (Homo sapiens, UniProt P46663); experiment: Functional FLIPR Ca2+ assay on the bradykinin 1 receptor, human (hB1R CHO K1 cells); type: cell-based; details: test substance 10 μM; CHO K1 cells transfected with human B1R gene; agonist Lys-Des-Arg9-bradykinin at EC80; % inhibition compared with maximum achievable inhibition; read-out: B1R antagonism, human (10 μM] % inhibition
T1 construct: expressed in transfected cells; host or cells: CHO K1 cells (Chinese hamster ovary), stably transfected
T1 sequence (P46663 1-353): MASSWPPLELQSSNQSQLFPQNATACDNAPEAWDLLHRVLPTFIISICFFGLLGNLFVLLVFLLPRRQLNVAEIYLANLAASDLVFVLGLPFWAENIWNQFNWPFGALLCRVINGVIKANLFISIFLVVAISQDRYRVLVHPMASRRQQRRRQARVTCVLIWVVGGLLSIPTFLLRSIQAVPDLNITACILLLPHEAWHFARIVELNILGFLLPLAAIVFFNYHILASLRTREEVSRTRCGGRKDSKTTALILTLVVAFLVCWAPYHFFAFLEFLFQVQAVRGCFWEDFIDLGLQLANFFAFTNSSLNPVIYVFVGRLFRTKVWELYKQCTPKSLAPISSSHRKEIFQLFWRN
Procedure: The agonistic or antagonistic action of substances can be quantified on the bradykinin 1 receptor (B1R) of the human and rat species with ectopically expressing cell lines (CHO K1 cells) and with the aid of a Ca^2+-sensitive dyestuff (Fluo-4) in a fluorescent imaging plate reader (FLIPR). The figure in % activation is based on the Ca^2+ signal after addition of Lys-Des-Arg^9-bradykinin (0.5 nM) or Des-Arg^9-bradykinin (100 nM). Antagonists lead to a suppression of the Ca^2+ inflow after addition of the agonist. % inhibition compared with the maximum achievable inhibition is stated.
The agonistic or antagonistic action of substances can be determined on the bradykinin 1 receptor (B1R) of the human and rat species with the following assay. In accordance with this assay, the Ca^2+ inflow through the channel is quantified with the aid of a Ca^2+-sensitive dyestuff (type Fluo-4, Molecular Probes Europe BV, Leiden, Holland) in a fluorescent imaging plate reader (FLIPR, Molecular Devices, Sunnyvale, USA).
Chinese hamster ovary cells (CHO K1 cells) transfected stably with the human B1R gene (hB1R cells) or the B1R gene of the rat (rB1R cells) are used. For functional studies, these cells are plated out on black 96-well plates with a clear base (BD Biosciences, Heidelberg, Germany or Greiner, Frickenhausen, Germany) in a density of 20,000-35,000 cells/well. The cells are left overnight at 37° C. and 5% CO2 in culture medium (hB1R cells: Nutrient Mixture Ham's F12, Gibco Invitrogen GmbH, Karlsruhe, Germany or DMEM, Sigma-Aldrich, Taufkirchen, Germany; rB1R cells: D-MEM/F12, Gibco Invitrogen GmbH, Karlsruhe, Germany) with 10 vol. % FBS (foetal bovine serum, Gibco Invitrogen GmbH, Karlsruhe, Germany or PAN Biotech GmbH, Aidenbach, Germany). On the following day, the cells are loaded for 60 min at 37° C. with 2.13 μM Fluo-4 (Molecular Probes Europe BV, Leiden, Holland) in HBSS buffer (Hank's buffered saline solution, Gibco Invitrogen GmbH, Karlsruhe, Germany) with 2.5 mM probenecid (Sigma-Aldrich, Taufkirchen, Germany) and 10 mM HEPES (Sigma-Aldrich, Taufkirchen, Germany). The plates are then washed 2× with HBSS buffer, and HBSS buffer which additionally contains 0.1% BSA (bovine serum albumin; Sigma-Aldrich, Taufkirchen, Germany), 5.6 mM glucose and 0.05% gelatine (Merck KgaA, Darmstadt, Germany) is added. After a further incubation of 20 minutes at room temperature, the plates are inserted into the FLIPR for the Ca^2+ measurement.
Alternatively, the plates are washed with buffer A (15 mM HEPES, 80 mM NaCl, 5 mM KCl, 1.2 mM CaCl2, 0.7 mM MgSO4, 2 g/l glucose, 2.5 mM probenecid), buffer A is added and the plates are loaded with 2.5 μM Fluo-4 and 0.025% Pluronic F127 (Sigma-Aldrich, Taufkirchen, Germany). Thereafter, the cells are washed 2× with buffer A and incubated for 30 minutes with buffer A, which additionally contains 0.05% BSA and 0.05% gelatine, at room temperature and thereafter inserted into the FLIPR for the Ca^2+ measurement. The Ca^2+-dependent fluorescence is measured here before and after addition of substances (λex=488 nm, λem=540 nm). Quantification is by measurement of the highest fluorescence intensity (FC, fluorescence counts) over time.
The FLIPR protocol consists of 2 additions of substance. Test substances (10 μM) are first pipetted on to the cells and the Ca^2+ inflow is compared with the control (hB1R: Lys-Des-Arg^9-bradykinin >=50 nM; rB1R: Des-Arg^9-bradykinin 10 μM). This gives the figure in % activation based on the Ca^2+ signal after addition of Lys-Des-Arg^9-bradykinin (>=50 nM) or Des-Arg^9-bradykinin (10 μM). After incubation for 10-20 minutes, Lys-Des-Arg^9-bradykinin (hB1R) or Des-Arg^9-bradykinin (rB1R) in the concentration of the EC80 is applied and the inflow of Ca^2+ is likewise determined. Antagonists lead to a suppression of the Ca^2+ inflow. % inhibition compared with the maximum achievable inhibition is calculated. In order to determine the IC50 value, the substances are added in various concentrations. […]

[2] = molecular target: T2, B1R receptor of the rat (rB1R) (Rattus norvegicus, UniProt P97583); experiment: Functional FLIPR Ca2+ assay on the bradykinin 1 receptor, rat (rB1R CHO K1 cells); type: cell-based; details: test substance 10 μM; CHO K1 cells transfected with rat B1R gene; agonist Des-Arg9-bradykinin at EC80; % inhibition compared with maximum achievable inhibition; read-out: B1R antagonism, rat [10 μM] % inhibition
T2 construct: expressed in transfected cells; host or cells: CHO K1 cells (Chinese hamster ovary), stably transfected
T2 sequence (P97583 1-337): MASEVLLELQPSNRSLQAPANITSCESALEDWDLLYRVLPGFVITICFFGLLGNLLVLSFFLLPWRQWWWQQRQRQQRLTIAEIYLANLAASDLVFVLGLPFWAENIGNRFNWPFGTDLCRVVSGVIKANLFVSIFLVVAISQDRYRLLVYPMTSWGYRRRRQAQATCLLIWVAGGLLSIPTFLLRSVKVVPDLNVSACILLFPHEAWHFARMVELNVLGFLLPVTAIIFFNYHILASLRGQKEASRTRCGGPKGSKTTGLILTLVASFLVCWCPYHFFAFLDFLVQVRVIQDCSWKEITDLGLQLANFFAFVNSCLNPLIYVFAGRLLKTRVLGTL
Procedure, shortened: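 Stably transfected CHO K1 cells expressing human or rat B1R, Fluo-4-loaded, Ca2+ influx read by FLIPR (peak fluorescence). Compounds (10 μM for % activation) preincubated 10-20 min, then EC80 agonist added: Lys-Des-Arg9-bradykinin for human, Des-Arg9-bradykinin for rat; % inhibition versus maximal inhibition, IC50 from concentration series.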

Row | Structure (SMILES) | inhibition at 10 µM [1] | inhibition at 10 µM [2]
1 | O=C(C[C@@H](NS(=O)(=O)c1ccc2ccccc2c1)c1ccccc1)N1CCc2onc(-c3ccncc3)c2C1 [Example 03, I—N-(3-oxo-1-phenyl-3-(3-(pyridin-4-yl)-6,7-dihydroisoxazolo[4,5-c]pyridin-5(4H)-yl)propyl)naphthalene-2-sulfonamide] | 83% | 102%
2 | COc1cc(C)c(S(=O)(=O)N2CCCCC2COCC(=O)N2CCc3sccc3C2c2ccncc2)c(C)c1 (stereo not shown) [Example 36, 2-((1-(4-methoxy-2,6-dimethylphenylsulfonyl)piperidin-2-yl)methoxy)-1-(4-(pyridin-4-yl)-6,7-dihydrothieno[3,2-c]pyridin-5(4H)-yl)ethanone] | 100% | 100%
3 | COc1cc(C)c(S(=O)(=O)N2c3ccccc3CC[C@H]2COCC(=O)N2CCc3onc(-c4ccncc4)c3C2)c(C)c1 [Example 125, 2-[[(2S)-1-[(4-Methoxy-2,6-dimethyl-phenyl)sulfonyl]-1,2,3,4-tetrahydro-quinolin-2-yl]-methoxy]-1-(3-pyridin-4-yl-4,5,6,7-tetrahydro-isoxazolo[4,5-c]pyridin-5-yl)-ethanone] | 75% | 102%
4 | COc1cc(C)c(S(=O)(=O)N(C)CCOCC(=O)N2CCc3sc(CN4CCN(C)CC4)cc3C2)c(C)c1 [Example 51, 4-methoxy-N,2,6-trimethyl-N-(2-(2-(2-((4-methylpiperazin-1-yl)methyl)-6,7-dihydrothieno[3,2-c]pyridin-5(4H)-yl)-2-oxoethoxy)ethyl)benzenesulfonamide] | 100% | 103%
5 | COc1cc(C)c(S(=O)(=O)N2CCCCC2COCC(=O)N2CCc3sc(CN4CCCCC4)cc3C2)c(C)c1 (stereo not shown) [Example 27, 2-((1-(4-Methoxy-2,6-dimethylphenylsulfonyl)piperidin-2-yl)methoxy)-1-(2-(piperidin-1-ylmethyl)-6,7-dihydrothieno[3,2-c]pyridin-5(4H)-yl)ethanone] | 100% | 106%
6 | O=C(CC1CCCCN1S(=O)(=O)c1cccc(C(F)(F)F)c1)N1CCc2nc(-c3ccncc3)sc2C1 (stereo not shown) [Example 37, 1-(2-(pyridin-4-yl)-6,7-dihydrothiazolo[5,4-c]pyridin-5(4H)-yl)-2-(1-(3-(trifluoromethyl)phenylsulfonyl)piperidin-2-yl)ethan-1-one] | 28% | 97%
7 | COc1cc(C)c(S(=O)(=O)N2CCCCC2CCC(=O)N2CCc3sc(CN4CCN(C)CC4)cc3C2)c(C)c1 (stereo not shown) [Example 45, 3-(1-(4-methoxy-2,6-dimethylphenylsulfonyl)piperidin-2-yl)-1-(2-((4-methylpiperazin-1-yl)methyl)-6,7-dihydrothieno[3,2-c]pyridin-5(4H)-yl)propan-1-one] | 98% | 99%
8 | COc1cc(C)c(S(=O)(=O)N2CCCCC2COCC(=O)N2CCc3onc(-c4ccc(Cl)cc4)c3C2)c(C)c1 (stereo not shown) [Example 24, 1-(3-(4-chlorophenyl)-6,7-dihydroisoxazolo[4,5-c]pyridin-5(4H)-yl)-2-((1-(4-methoxy-2,6-dimethylphenylsulfonyl)piperidin-2-yl)methoxy)ethanone] | 73% | 100%
9 | CN1CCN(Cc2cc3c(s2)CCN(C(=O)CC(NS(=O)(=O)c2ccc4ccccc4c2)c2ccccc2)C3)CC1 (racemic) [Example 46, N-(3-(2-((4-methylpiperazin-1-yl)methyl)-6,7-dihydrothieno[3,2-c]pyridin-5(4H)-yl)-3-oxo-1-phenylpropyl)naphthalene-2-sulfonamide] | 100% | 102%
10 | COc1cc(C)c(S(=O)(=O)N(C)CCOCC(=O)N2CCc3onc(CN4CCOCC4)c3C2)c(C)c1 [Example 30, 4-methoxy-N,2,6-trimethyl-N-(2-(2-(3-(morpholinomethyl)-6,7-dihydroisoxazolo[4,5-c]pyridin-5(4H)-yl)-2-oxoethoxy)ethyl)benzenesulfonamide] | 99% | 104%
11 | COc1cc(C)c(S(=O)(=O)N2CCCCC2COCC(=O)N2CCc3onc(CN4CCCCC4)c3C2c2ccccc2)c(C)c1 (stereo not shown) [Example 126, 2-((1-(4-Methoxy-2,6-dimethylphenylsulfonyl)piperidin-2-yl)methoxy)-1-(4-phenyl-3-(piperidin-1-ylmethyl)-6,7-dihydroisoxazolo[4,5-c]pyridin-5(4H)-yl)ethanone] | 90% | 104%
12 | O=C(CC1CCCCN1S(=O)(=O)c1cccc(C(F)(F)F)c1)N1CCc2sccc2C1c1ccncc1 (stereo not shown) [Example 54, 1-(4-pyridin-4-yl-4,5,6,7-tetrahydro-thieno[3,2-c]pyridin-5-yl)-2-[1-[[3-(trifluoromethyl)phenyl]sulfonyl]-piperidin-2-yl]-ethanone] | 16% | 101%
13 | COc1cc(C)c(S(=O)(=O)N2CCCCC2COCC(=O)N2CCc3sccc3C2c2ccccc2C)c(C)c1 (stereo not shown) [Example 12, 2-((1-(4-methoxy-2,6-dimethylphenylsulfonyl)piperidin-2-yl)methoxy)-1-(4-o-tolyl-6,7-dihydrothieno[3,2-c]pyridin-5(4H)-yl)ethanone] | 64% | 104%
14 | COc1cc(C)c(S(=O)(=O)N2CCCCC2CCC(=O)N2CCc3onc(-c4ccncc4)c3C2)c(C)c1 (stereo not shown) [Example 01, 3-(1-(4-Methoxy-2,6-dimethylphenylsulfonyl)piperidin-2-yl)-1-(3-(pyridin-4-yl)-6,7-dihydroisoxazolo[4,5-c]pyridin-5(4H)-yl)propan-1-one] | 46% | 98%
